Molecules are shown by their SMILES. Where only a bound is given, the exact number is not on record here.

Experiment [1] concerns Sigma 2 receptor. The experiment in a line: Tested for [3H]DTG binding to sigma-2 receptor in NG108-15 cell membranes.
Experiment [2] has as its target D(2) dopamine receptor (Homo sapiens, UniProt P14416). The experiment is described as follows: biochemical.
Description: Displacement of [3H]spiperone from CHO-K1 cell membranes expressing human dopamine receptor D2
For experiment [3], the target named is D(3) dopamine receptor (Homo sapiens, UniProt P35462). The experiment is described as follows: biochemical.
D(3) dopamine receptor, sequence (P35462 whole entry): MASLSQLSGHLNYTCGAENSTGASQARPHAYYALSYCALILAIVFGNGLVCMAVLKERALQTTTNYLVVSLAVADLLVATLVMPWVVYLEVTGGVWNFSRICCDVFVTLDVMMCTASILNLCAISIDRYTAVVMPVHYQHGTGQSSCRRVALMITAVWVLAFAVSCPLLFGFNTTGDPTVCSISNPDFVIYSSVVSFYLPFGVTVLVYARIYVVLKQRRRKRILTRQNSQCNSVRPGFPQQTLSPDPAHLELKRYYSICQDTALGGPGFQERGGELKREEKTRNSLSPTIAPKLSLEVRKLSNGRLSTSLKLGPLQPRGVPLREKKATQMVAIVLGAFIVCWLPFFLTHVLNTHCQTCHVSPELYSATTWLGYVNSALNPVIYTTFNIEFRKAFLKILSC
Description: Displacement of [3H]-spiperone from CHO-K1 cell membranes expressing human dopamine 3 receptors
In experiment [4] the target is Sigma 2 receptor. The experiment is described as follows: Tested for [3H]DTG binding to sigma-2 receptor in NG108-15 membrane. The class given is cell membranes.
The species entered for experiment [5] is Rattus norvegicus. The following applies: Frontal cortex.
Description: Effect of compound (2 mg/kg ip) on the concentration of 5-HIAA in rat frontal cortex
The species named for experiment [6] is Rattus norvegicus.
Description: Effect of compound (2 mg/kg ip) on the concentration of 5-HIAA in rat mesolimbic region
Experiment [7] is filed under the species Rattus norvegicus. The conditions noted are these: Striatum.
Description: Effect of compound (2 mg/kg ip) on the concentration of 5-HIAA in rat striatum
For experiment [8], the species on record is Rattus norvegicus. The following applies: Frontal cortex. The source holds these as a separate data set.
Description: Effect of compound (2 mg/kg ip) on the concentration of 5-HT in rat frontal cortex
Experiment [9] is filed under the species Rattus norvegicus. The source holds these as a separate data set.
Description: Effect of compound (2 mg/kg ip) on the concentration of 5-HT in rat mesolimbic region
The species named for experiment [10] is Rattus norvegicus. The following applies: Striatum. This is another data set of the same source.
Description: Effect of compound (2 mg/kg ip) on the concentration of 5-HT in rat striatum
The species named for experiment [11] is Rattus norvegicus. The conditions noted are these: Frontal cortex. The source holds these as a separate data set.
Description: Effect of compound (2 mg/kg ip) on the concentration of DA in rat frontal cortex
Experiment [12] is filed under the species Rattus norvegicus. The following applies: Striatum. This is another data set of the same source.
Description: Effect of compound (2 mg/kg ip) on the concentration of DA in rat striatum
Experiment [13] is filed under the species Rattus norvegicus. The following applies: Frontal cortex. The source holds these as a separate data set.
Description: Effect of compound (2 mg/kg ip) on the concentration of DOPAC in rat frontal cortex
The species named for experiment [14] is Rattus norvegicus. This is another data set of the same source.
Description: Effect of compound (2 mg/kg ip) on the concentration of DOPAC in rat mesolimbic region
For experiment [15], the species on record is Rattus norvegicus. The following applies: Striatum. This is another data set of the same source.
Description: Effect of compound (2 mg/kg ip) on the concentration of DOPAC in rat striatum
Experiment [16] is filed under the species Rattus norvegicus. The following applies: Frontal cortex. The source holds these as a separate data set.
Description: Effect of compound (2 mg/kg ip) on the concentration of DOPAC/DA in rat frontal cortex
The species named for experiment [17] is Rattus norvegicus. This is another data set of the same source.
Description: Effect of compound (2 mg/kg ip) on the concentration of DOPAC/DA in rat mesolimbic region
Experiment [18] is filed under the species Rattus norvegicus. The conditions noted are these: Striatum. This is another data set of the same source.
Description: Effect of compound (2 mg/kg ip) on the concentration of DOPAC/DA in rat striatum
The species entered for experiment [19] is Rattus norvegicus. The following applies: Frontal cortex. This is another data set of the same source.
Description: Effect of compound (2 mg/kg ip) on the concentration of HVA in rat frontal cortex
Experiment [20] is filed under the species Rattus norvegicus. This is another data set of the same source.
Description: Effect of compound (2 mg/kg ip) on the concentration of HVA in rat mesolimbic region
For experiment [21], the species on record is Rattus norvegicus. The following applies: Striatum. This is another data set of the same source.
Description: Effect of compound (2 mg/kg ip) on the concentration of HVA in rat striatum
The species named for experiment [22] is Rattus norvegicus. The source holds these as a separate data set.
Description: Effect of compound (2 mg/kg ip) on the concentration of DA in rat mesolimbic region
The species named for experiment [23] is Rattus norvegicus. The conditions noted are these: Striatum. This is another data set of the same source.
Description: Effect of compound (0.2 mg/kg ip) on the concentration of 5-HIAA in rat striatum
For experiment [24], the species on record is Rattus norvegicus. The following applies: Striatum. The source holds these as a separate data set.
Description: Effect of compound (0.2 mg/kg ip) on the concentration of 5-HT in rat striatum
Experiment [25] is filed under the species Rattus norvegicus. The following applies: Frontal cortex. The source holds these as a separate data set.
Description: Effect of compound (0.2 mg/kg ip) on the concentration of DA in rat frontal cortex
For experiment [26], the species on record is Rattus norvegicus. This is another data set of the same source.
Description: Effect of compound (0.2 mg/kg ip) on the concentration of DA in rat mesolimbic region
The species named for experiment [27] is Rattus norvegicus. The conditions noted are these: Striatum. This is another data set of the same source.
Description: Effect of compound (0.2 mg/kg ip) on the concentration of DA in rat striatum
For experiment [28], the species on record is Rattus norvegicus. The conditions noted are these: Frontal cortex. The source holds these as a separate data set.
Description: Effect of compound (0.2 mg/kg ip) on the concentration of DOPAC in rat frontal cortex
The species named for experiment [29] is Rattus norvegicus. This is another data set of the same source.
Description: Effect of compound (0.2 mg/kg ip) on the concentration of DOPAC in rat mesolimbic region
The species entered for experiment [30] is Rattus norvegicus. The conditions noted are these: Striatum. This is another data set of the same source.
Description: Effect of compound (0.2 mg/kg ip) on the concentration of DOPAC in rat striatum
For experiment [31], the species on record is Rattus norvegicus. This is another data set of the same source.
Description: Effect of compound (0.2 mg/kg ip) on the concentration of DOPAC/DA in rat mesolimbic region
Experiment [32] is filed under the species Rattus norvegicus. The following applies: Striatum. This is another data set of the same source.
Description: Effect of compound (0.2 mg/kg ip) on the concentration of DOPAC/DA in rat striatum
Experiment [33] is filed under the species Rattus norvegicus. The following applies: Frontal cortex. This is another data set of the same source.
Description: Effect of compound (0.2 mg/kg ip) on the concentration of HVA in rat frontal cortex
Experiment [34] is filed under the species Rattus norvegicus. The source holds these as a separate data set.
Description: Effect of compound (0.2 mg/kg ip) on the concentration of HVA in rat mesolimbic region
Experiment [35] is filed under the species Rattus norvegicus. The following applies: Striatum. This is another data set of the same source.
Description: Effect of compound (0.2 mg/kg ip) on the concentration of HVA in rat striatum
The species named for experiment [36] is Rattus norvegicus. The conditions noted are these: Frontal cortex. This is another data set of the same source.
Description: Effect of compound on (0.2 mg/kg ip) the concentration of 5-HIAA in rat frontal cortex
Experiment [37] is filed under the species Rattus norvegicus. The source holds these as a separate data set.
Description: Effect of compound on (0.2 mg/kg ip) the concentration of 5-HIAA in rat mesolimbic region
Experiment [38] is filed under the species Rattus norvegicus. The following applies: Frontal cortex. This is another data set of the same source.
Description: Effect of compound on (0.2 mg/kg ip) the concentration of 5-HT in rat frontal cortex
The species entered for experiment [39] is Rattus norvegicus. This is another data set of the same source.
Description: Effect of compound on (0.2 mg/kg ip) the concentration of 5-HT in rat mesolimbic region
Experiment [40] is filed under the species Rattus norvegicus. The following applies: Frontal cortex. This is another data set of the same source.
Description: Effect of compound on (0.2 mg/kg ip) the concentration of DOPAC/DA in rat frontal cortex

D(2) dopamine receptor, sequence (P14416 whole entry): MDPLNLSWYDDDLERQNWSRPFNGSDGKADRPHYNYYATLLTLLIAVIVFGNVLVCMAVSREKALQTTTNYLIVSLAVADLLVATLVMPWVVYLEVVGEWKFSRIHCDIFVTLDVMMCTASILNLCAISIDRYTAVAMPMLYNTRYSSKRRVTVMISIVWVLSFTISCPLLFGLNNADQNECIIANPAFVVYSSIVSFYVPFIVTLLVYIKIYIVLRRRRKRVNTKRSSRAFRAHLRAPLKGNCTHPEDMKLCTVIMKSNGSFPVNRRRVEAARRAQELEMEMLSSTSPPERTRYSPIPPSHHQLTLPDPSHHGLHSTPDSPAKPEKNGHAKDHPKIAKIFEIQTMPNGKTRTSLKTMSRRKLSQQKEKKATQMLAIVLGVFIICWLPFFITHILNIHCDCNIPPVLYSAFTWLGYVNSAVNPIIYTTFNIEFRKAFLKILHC

For `O[C@@H](CCCN1CCN(c2ccccn2)CC1)c1ccc(F)cc1`, the Ki in [1] was 38 nM; in [2], 101 nM; in experiment [3], 125 nM.
Taken in the same sequence, the figures for `O[C@H](CCCN1CCN(c2ncc(F)cn2)CC1)c1ccc(F)cc1` were 1240 nM, over 5000 nM and over 2000 nM.
Taken in the same sequence, the figures for `O[C@@H](CCCN1CCN(c2ncc(F)cn2)CC1)c1ccc(F)cc1` [BMY-14802] were 96 nM, 3350 nM and over 2000 nM.
On to `O=C(CCCN1CCN(c2ccccn2)CC1)c1ccc(F)cc1` [AZAPERONE], for which, in experiment [1], the Ki came to 51 nM.
In the case of `O[C@H](CCCN1CCC(O)(c2ccc(Cl)cc2)CC1)c1ccc(F)cc1`, the Ki came to 31 nM in experiment [4] and 1300 nM in experiment [3]. The Concentration (ng (g of tissue)-1) amounted to 172 in experiment [5]; 492 in experiment [6]; 510 in [7]; 154 in experiment [8]; 627 in experiment [9]; 397 in experiment [10]. Moreover, the Concentration (ng (g of tissue)-1) turned out to be 18 in [11]; 3750 in experiment [12]; 32 in [13]; 1020 in experiment [14]; 2440 in experiment [15]; 1.81 in experiment [16]. The Concentration (ng (g of tissue)-1) in experiment [17] is 0.616; in experiment [18] it was 0.651; in experiment [19], 98; in experiment [20], 641; in experiment [21], 1780; in [22] it was 1660.
For the molecule `O[C@H](CCCN1CCN(c2ccccn2)CC1)c1ccc(F)cc1`, the Ki in experiment [1] amounted to 280 nM; in [2], 403 nM; in experiment [3] it was 374 nM.
Take `O=C(CCCN1CCC(O)(c2ccc(Cl)cc2)CC1)c1ccc(F)cc1`: the Concentration (ng (g of tissue)-1) came out at 552 in experiment [23]; 407 in [24]; 27 in experiment [25]; 1680 in experiment [26]; 5140 in experiment [27]; 32 in experiment [28]. Moreover, the Concentration (ng (g of tissue)-1) is 986 in experiment [29]; 2870 in [30]; 0.587 in experiment [31]; 0.558 in [32]; 102 in experiment [33]; 669 in [34]. Also, the Concentration (ng (g of tissue)-1) is 2190 in [35]; 180 in experiment [36]; 648 in experiment [37]; 160 in [38]; 657 in experiment [39]; 1.18 in experiment [40].
On to `O[C@@H](CCCN1CCC(O)(c2ccc(Cl)cc2)CC1)c1ccc(F)cc1`, for which the Ki was 8.2 nM in experiment [4] and 330 nM in experiment [3]. The Concentration (ng (g of tissue)-1) in experiment [5] was determined as 156; in experiment [6], 527; in experiment [7], 437; in experiment [8] it was 165; in experiment [9] it was 639; in experiment [10] it was 367. Moreover, the Concentration (ng (g of tissue)-1) is 19 in experiment [11]; 5230 in experiment [12]; 32 in [13]; 1310 in experiment [14]; 2740 in [15]; 1.7 in experiment [16]. For the same molecule, the Concentration (ng (g of tissue)-1) was determined as 0.588 in experiment [17]; 0.523 in [18]; 80 in experiment [19]; 788 in experiment [20]; 1980 in experiment [21]; 2230 in [22].

In general, Ki refers to a measure of affinity in units of concentration, obtained from inhibition or displacement. Low readings indicate higher affinity, high ones lower affinity.
